Data reported in PubChem BioAssay AID330 (DTP/NCI, 2004).
Several values for one entry are separate records, joined by “and”; a condition that tells them apart may be missing. Equal entries are not always repeated. Inconclusive results and toxic doses are left out. Rule for the calls: active = survival T/C of 150% or more; inactive = T/C below 125% in these data. Peptide text beside a SMILES is read from it.

Test system: P388 leukemia ip, CD2F1 mice, survival T/C
Assay: NCI In Vivo Anticancer Drug Screen. Data for tumor model P388 Leukemia (intraperitoneal) in CD2F1 (CDF1) mice
Conditions: endpoint: median survival time, higher = longer survival
Outline: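 Mice carrying the transplanted tumor received test compound or vehicle. Survival was recorded in each group, and the value is the treated-group measurement divided by that of the vehicle-treated control group.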

[1] = dose: 6.25 mg/kg/injection, schedule: Q01DX009 (ip), vehicle: saline
[2] = dose: 50.0 mg/kg/injection, schedule: Q01DX009 (ip), vehicle: saline
[3] = dose: 50.0 mg/kg/injection, schedule: Q01DX009 (ip), vehicle: saline with Tween-80
[4] = dose: 100.0 mg/kg/injection, schedule: Q01DX009 (ip), vehicle: saline with Tween-80
[5] = dose: 200.0 mg/kg/injection, schedule: Q01DX009 (ip), vehicle: saline with Tween-80
[6] = dose: 1.56 mg/kg/injection, schedule: Q01DX009 (ip), vehicle: saline
[7] = dose: 3.12 mg/kg/injection, schedule: Q01DX009 (ip), vehicle: saline
[8] = dose: 200.0 mg/kg/injection, schedule: Q01DX009 (ip), vehicle: saline
[9] = dose: 50.0 mg/kg/injection, schedule: Q01DX005 (ip), vehicle: saline with Tween-80
[10] = dose: 100.0 mg/kg/injection, schedule: Q01DX005 (ip), vehicle: saline with Tween-80
[11] = dose: 200.0 mg/kg/injection, schedule: Q01DX005 (ip), vehicle: saline with Tween-80
[12] = dose: 50.0 mg/kg/injection, schedule: Q01DX009 (ip), vehicle: Klucel (hydroxypropylcellulose) (HPC)
[13] = dose: 100.0 mg/kg/injection, schedule: Q01DX009 (ip), vehicle: Klucel (hydroxypropylcellulose) (HPC)
[14] = dose: 200.0 mg/kg/injection, schedule: Q01DX009 (ip), vehicle: Klucel (hydroxypropylcellulose) (HPC)
[15] = dose: 2.5 mg/kg/injection, schedule: Q01DX009 (ip), vehicle: saline with Tween-80
[16] = dose: 25.0 mg/kg/injection, schedule: Q01DX009 (ip), vehicle: saline with Tween-80
[17] = dose: 60.0 mg/kg/injection, schedule: Q01DX005 (ip), vehicle: saline with Tween-80
[18] = dose: 120.0 mg/kg/injection, schedule: Q01DX005 (ip), vehicle: saline with Tween-80
[19] = dose: 240.0 mg/kg/injection, schedule: Q01DX005 (ip), vehicle: saline with Tween-80

Measured: T/C

C1CCC(N=C(NC2CCCCC2)N2CCOCC2)CC1
inactive: [1] 99 % of control | dose: 12.5 mg/kg/injection, schedule: Q01DX009 (ip), vehicle: saline 99 % of control | dose: 25.0 mg/kg/injection, schedule: Q01DX009 (ip), vehicle: saline 100 % of control | [2] 89 % of control

Clc1ccc2c(nnn2OC2CCCC2)c1Cl
inactive: [3] 88 % of control | [4] 94 % of control | [5] 94 % of control

Nc1ncnc2c1ncn2C1OC(CO)C(N)C1O (stereo unspecified)
inactive: dose: 100.0 mg/kg/injection, schedule: Q04DX002 (ip), vehicle: saline with Tween-80 102 % of control | dose: 200.0 mg/kg/injection, schedule: Q04DX002 (ip), vehicle: saline with Tween-80 102 % of control | dose: 400.0 mg/kg/injection, schedule: Q04DX002 (ip), vehicle: saline with Tween-80 105 % of control

COC(=O)OC(C#N)c1ccccc1[N+](=O)[O-] (stereo unspecified)
inactive: [6] 88 % of control | [7] 98 % of control | [1] 105 % of control | dose: 6.25 mg/kg/injection, schedule: Q01DX009 (ip), vehicle: suspension in saline 88 % of control | [8] 94 % of control

C#CC(C)(C)NC(=O)c1cccnc1Oc1ccccc1
inactive: [9] 99 % of control | [10] 97 % of control | [11] 99 % of control

CC(O)C(N)C(=O)NC(Cc1ccc(O)cc1)C(=O)NC(CCCCN)C(=O)O (stereo not drawn) (H-Thr-Tyr-Lys-OH; configuration not given here)
inactive: dose: 50.0 mg/kg/injection, schedule: Q01DX005 (ip), vehicle: saline 101 % of control | dose: 100.0 mg/kg/injection, schedule: Q01DX005 (ip), vehicle: saline 101 % of control | dose: 200.0 mg/kg/injection, schedule: Q01DX005 (ip), vehicle: saline 106 % of control

CC1(C)CN(Cc2ccccc2)C2OC1N(Cc1ccccc1)CC2(C)C
inactive: [12] 102 % of control | [13] 99 % of control | [14] 96 % of control

NC(=O)c1ccc(NC(=O)/C=C/C(=O)Nc2ccc(C(N)=O)cn2)nc1
inactive: dose: 1.65 mg/kg/injection, schedule: Q01DX009 (ip), vehicle: saline with Tween-80 109 % of control | [15] 118 % of control | dose: 2.5 mg/kg/injection, schedule: Q04DX003 (ip), vehicle: saline with Tween-80 100 % of control | dose: 3.75 mg/kg/injection, schedule: Q01DX009 (ip), vehicle: saline with Tween-80 104 % of control | dose: 5.0 mg/kg/injection, schedule: Q04DX003 (ip), vehicle: saline with Tween-80 100 % of control | dose: 10.0 mg/kg/injection, schedule: Q04DX003 (ip), vehicle: saline with Tween-80 100 % of control and 118 % of control | dose: 20.0 mg/kg/injection, schedule: Q04DX003 (ip), vehicle: saline with Tween-80 100 % of control | dose: 625.0 micrograms/kg/injection, schedule: Q01DX009 (ip), vehicle: saline with Tween-80 104 % of control | dose: 1250.0 micrograms/kg/injection, schedule: Q01DX009 (ip), vehicle: saline with Tween-80 122 % of control

CCCCC(O)(CCCC)/C(C)=N/O
inactive: [3] 94 % of control | [4] 91 % of control | [5] 87 % of control

O=c1c(Cl)c(Cl)oc(Cl)c1Cl
inactive: [9] 100 % of control | [10] 98 % of control

C[S+](C)CCO
inactive: [2] 100 % of control | dose: 100.0 mg/kg/injection, schedule: Q01DX009 (ip), vehicle: saline 102 % of control | [8] 98 % of control | dose: 400.0 mg/kg/injection, schedule: Q01DX009 (ip), vehicle: saline 95 % of control

CC(C)(N)C(=O)O
inactive: dose: 12.5 mg/kg/injection, schedule: Q01DX009 (ip), vehicle: saline with Tween-80 101 % of control | [16] 94 % of control | [3] 100 % of control | [4] 94 % of control | [5] 100 % of control | dose: 400.0 mg/kg/injection, schedule: Q01DX009 (ip), vehicle: saline with Tween-80 94 % of control | dose: 800.0 mg/kg/injection, schedule: Q01DX009 (ip), vehicle: saline with Tween-80 94 % of control | dose: 1600.0 mg/kg/injection, schedule: Q01DX009 (ip), vehicle: saline with Tween-80 94 % of control

O=[N+]([O-])c1ccc2c(Cl)c3ccccc3nc2c1
inactive: [3] 95 % of control | [4] 103 % of control | [5] 94 % of control

Cc1ccc(-n2c(=O)[nH]c3ccccc3c2=O)cc1[N+](=O)[O-]
inactive: dose: 6.25 mg/kg/injection, schedule: Q01DX005 (ip), vehicle: saline with Tween-80 101 % of control | dose: 12.5 mg/kg/injection, schedule: Q01DX005 (ip), vehicle: saline with Tween-80 97 % of control | [11] 90 % of control

Nc1c(C(=O)NCCc2ccccc2)c2nc3c(C(=O)NCCc4ccccc4)ccc(Br)c3oc-2c(Br)c1=O
inactive: [9] 89 % of control | [10] 94 % of control | [11] 99 % of control

Clc1cc2c(nn1)-c1ccccc1C2
inactive: [9] 100 % of control | [10] 105 % of control | [11] 100 % of control

O=C(O)c1ccc(/C=C2\COc3ccccc3C2=O)cc1
inactive: [17] 103 % of control | [18] 112 % of control | [19] 112 % of control

CCCCN(CCCC)C(=N)c1c2ccccc2nc2ccccc12
inactive: dose: 6.25 mg/kg/injection, schedule: Q01DX005 (ip), vehicle: saline 90 % of control | dose: 12.5 mg/kg/injection, schedule: Q01DX005 (ip), vehicle: saline 97 % of control | dose: 25.0 mg/kg/injection, schedule: Q01DX005 (ip), vehicle: saline 103 % of control

COc1ccc(C(Cc2ccccc2)C2(O)C(=O)NC(=O)NC2=O)cc1 (stereo unspecified)
inactive: [17] 103 % of control | [18] 99 % of control | [19] 98 % of control

CN(C)c1ccc(N=O)cc1
inactive: [6] 110 % of control | [7] 110 % of control | [1] 94 % of control

S=c1[nH]nc(NC2CCCCC2)s1
inactive: [3] 90 % of control | [4] 90 % of control | dose: 100.0 mg/kg/injection, schedule: Q04DX003 (ip), vehicle: saline with Tween-80 91 % of control | [5] 90 % of control | dose: 200.0 mg/kg/injection, schedule: Q04DX003 (ip), vehicle: saline with Tween-80 91 % of control

CCc1nn(Cc2ccccc2)c2nc(C)c(CCc3ccccc3)c(Cl)c12
inactive: dose: 60.0 mg/kg/injection, schedule: Q01DX005 (ip), vehicle: Klucel (hydroxypropylcellulose) (HPC) 92 % of control | dose: 120.0 mg/kg/injection, schedule: Q01DX005 (ip), vehicle: Klucel (hydroxypropylcellulose) (HPC) 91 % of control | dose: 240.0 mg/kg/injection, schedule: Q01DX005 (ip), vehicle: Klucel (hydroxypropylcellulose) (HPC) 94 % of control

CC(C)(C)N=C(CCN1CCN(CCC(=NC(C)(C)C)Nc2c(Cl)cccc2Cl)CC1)Nc1c(Cl)cccc1Cl
inactive: [12] 96 % of control | [13] 95 % of control | [14] 92 % of control

COc1cc2cc[n+](C)c(Cc3ccc(Oc4cc(Cc5c6cc(OC)c(OC)cc6cc[n+]5C)ccc4OC)cc3)c2cc1OC
inactive: dose: 2.5 mg/kg/injection, schedule: Q01DX009 (ip), vehicle: saline 98 % of control | dose: 5.0 mg/kg/injection, schedule: Q01DX009 (ip), vehicle: saline 99 % of control | dose: 10.0 mg/kg/injection, schedule: Q01DX009 (ip), vehicle: saline 88 % of control

O=S(=O)(NCCSSCCNS(=O)(=O)c1ccc2ccccc2c1)c1ccc2ccccc2c1
inactive: [12] 91 % of control | [13] 92 % of control | [14] 88 % of control

c1cc2c3c(c1)CCC3CCC2 (stereo unspecified)
inactive: [3] 112 % of control | [4] 109 % of control and 117 % of control | [5] 118 % of control

CC1=C(C(=O)CC(=O)C(=O)Nc2ccc(C)cc2)Sc2ccccc2N1
inactive: [17] 105 % of control | [18] 108 % of control | [19] 106 % of control

CC(C)(C)c1cc(C/C=C/c2ccccc2)c(O)c(C(C)(C)C)c1
inactive: [15] 90 % of control | dose: 5.0 mg/kg/injection, schedule: Q01DX009 (ip), vehicle: saline with Tween-80 99 % of control | dose: 10.0 mg/kg/injection, schedule: Q01DX009 (ip), vehicle: saline with Tween-80 96 % of control

O=C(/C=C/c1ccco1)c1ccc(O)c(C(=O)O)c1
inactive: [16] 99 % of control | [3] 105 % of control | [4] 102 % of control

C/C(=C1\N=C(c2ccccc2)OC1=O)c1ccccc1
inactive: [9] 96 % of control | [10] 92 % of control | [11] 95 % of control
